Experimental data from PubChem BioAssay (NCI).
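Interpolation was linear, between the two tested concentrations surrounding the appropriate level; five concentrations were tested over 48 hours in 96-well plates. TGI: concentration producing complete growth inhibition.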

Assays:
Test in all cases: DTP human tumour cell line panel, 48 h
[1] = system: UACC-257 melanoma
[2] = system: TK-10 renal
[3] = system: KM12 colon
[4] = system: HCT-116 colon
[5] = system: DLD-1 colon
[6] = system: SN12C renal
[7] = system: NCI-H522 lung
[8] = system: HOP-62 NSCLC
[9] = system: RPMI-8226 leukemia
[10] = system: COLO 205 colon
[11] = system: NCI-H226 lung
[12] = system: DMS 114 small cell lung
[13] = system: HL-60(TB) leukemia
[14] = system: OVCAR-8 ovarian
[15] = system: SNB-19 CNS
[16] = system: HT29 colon
[17] = system: A549 NSCLC
[18] = system: EKVX NSCLC
[19] = system: K-562 leukemia
[20] = system: CCRF-CEM leukemia
[21] = system: MOLT-4 leukemia
[22] = system: SNB-75 CNS
[23] = system: SW-620 colon
[24] = system: NCI-H460 lung
[25] = system: SK-MEL-2 melanoma
[26] = system: MALME-3M melanoma
[27] = system: UACC-62 melanoma
[28] = system: A498 renal
[29] = system: OVCAR-5 ovarian
[30] = system: SK-MEL-28 melanoma
[31] = system: ACHN renal
[32] = system: OVCAR-3 ovarian
[33] = system: HOP-92 NSCLC
[34] = system: LOX IMVI melanoma
[35] = system: U251 CNS
[36] = system: SF-295 CNS
[37] = system: LXFL 529 NSCLC
[38] = system: SNB-78 CNS
[39] = system: CAKI-1 renal
[40] = system: SR leukemia
[41] = system: M19-MEL melanoma
[42] = system: KM20L2 colon
[43] = system: 786-0 renal
[44] = system: SF-539 CNS
[45] = system: SK-MEL-5 melanoma
[46] = system: RXF 393 renal
[47] = system: SF-268 CNS
[48] = system: SK-OV-3 ovarian
[49] = system: NCI-H23 lung
[50] = system: M14 melanoma
[51] = system: UO-31 renal
[52] = system: HCC-2998 colon
[53] = system: IGROV1 ovarian
[54] = system: DMS 273 small cell lung
[55] = system: OVCAR-4 ovarian
[56] = system: HCT-15 colon
[57] = system: HOP-18 NSCLC

Measured: TGI

CC1=CP(=O)(OC(C)C)CC(C)=C1Cl (stereo not given)
not listed: [55] | [56] | [57]
> 100 µM: all other assays above

CCc1cccc(CC)c1NC(=O)C(=O)Cc1nc2ccccc2o1
not listed: [22] | [45] | [54]
> 100 µM: all other assays above

O=C(CSc1nnc(Cc2ccccc2)o1)Nc1ccc(Cl)cc1Cl
not listed: [18] | [33] | [40]
> 100 µM: all other assays above

COc1ccc(-c2nnc(-c3nsc4ccccc34)o2)cc1
92.6 µM: [32]
93.9 µM: [46]
83.4 µM: [22]
71.4 µM: [9]
not listed: [5] | [7] | [11] | [13] | [19] | [20] | [21] | [26] | [28] | [36] | [39] | [43] | [48]
> 100 µM: all other assays above

COc1cccc2c1C(=O)C1(O)CCCCC21 (stereo not given)
not listed: [18] | [33] | [40]
> 100 µM: all other assays above
